In patent publication US20050148553A1, “Use of tigecycline, alone, or in combination with rifampin to treat osteomyelitis and/or septic arthritis” (priority 2003, published 2005):

Assay: Whole body autoradiography after 30-minute 3 mg/kg IV infusion of [^14C]-tigecycline
Format: in vivo, Sprague-Dawley rats
Method: Male Sprague-Dawley and Long-Evans rats were obtained from Charles River Breeding Laboratories, Raleigh, N.C., and were quarantined for at least one week prior to the start of the study. […] The dosing solution was diluted and radioassayed directly in Ultima Gold scintillation counting cocktail (Packard Inc.). […] All pumps were calibrated prior to the administration of the compound. Rats were anesthetized with isoflurane prior to cardiac puncture exsanguination at the prescribed times after dosing. […] Control whole blood was collected from male Sprague-Dawley rats into tubes containing sodium heparin. Pooled blood was used to prepare the calibration standards and quality control samples. The standards were used to construct the standard curve for the quantification of radiolabeled drug distribution in tissues of whole blood cryosections. The quality controls, which were embedded in the same CMC block with each rat, were used for assessing intra- and inter-section variation in the thickness of rat whole-body cryosections. […] Immediately following euthanasia, each rat was totally immersed in a bath of hexane and dry ice (−75° C.) until frozen. Each carcass was dried and stored at −30° C. until embedded. […] Each frozen rat was sagitally sectioned at −20° C. A sufficient number of sections were collected to ensure sampling of all tissues of interest. The sections were dehydrated overnight in a cryochamber and then rapidly transferred to a dessicator containing CaSO4 to prevent condensation of atmospheric moisture while equilibrating to room temperature. The sections were mounted on cardboard and labeled with [^14C]-labeled black ink with a unique identification number. […] A small piece of Scotch tape was placed over the dried radioactive ink to prevent the contamination of the storage phosphor screens. Phosphor imaging plates, BAS-SR 2025 (Fuji Photo Film Co., Japan) were exposed to bright visible light for 20 minutes using an IP eraser (Raytest, USA Inc., New Castle, Del.) to remove background radiation. Sections and calibration blood standards were concurrently placed in direct contact with Ips and exposed for 7 days. All sections were stored at room temperature in a lead shielding box to minimize background levels. Phosphor images were generated using a Fujifilm BAS-5000 Bio-Imaging Analyzer and quantitated by MCID M2 Software, version 3.2 (Imaging Research Inc., St. Catherines, Ontario, Canada). The STDs and QCs were analyzed using the circular sampling tool in the MCID software program. Areas of interest in whole-body sections were manually outlined with the regional sampling tool to generate count data. Radioactive concentrations in select tissues were determined by digital analysis of the resulting autoradiograms on the basis of a calibration curve. […] The linear regression curve was then used to determine the concentration of unknown radioactivity of study samples. […] Blood samples were combusted using a Model 307 sample oxidizer (Packard Instrument Company). […] Research Triangle Park, N.C.), which applies a model-independent approach and standard procedures as described in Gibaldi and Perrier. Gibaldi, Pharmacokinetics, 1982. […] For IV infusion dosing, C30 min was the concentration at 30 minutes, the first sampling time point. The maximum plasma concentration (Cmax) and the corresponding time of peak concentration following IV administration were obtained directly by numerical inspection from the individual concentration-time data. The terminal half-life was calculated by the ratio of ln2/λz where λz is derived from the terminal slope of the concentration time curve. The area under the plasma concentration versus time curve from zero to infinity was calculated using the trapezoidal rule, where Clast is the last measurable plasma concentration. […]

With `CN(C)c1cc(NC(=O)CNC(C)(C)C)c(O)c2c1C[C@H]1C[C@H]3[C@H](N(C)C)C(O)=C(C(N)=O)C(=O)[C@@]3(O)C(O)=C1C2=O` [[^14C]-Tigecycline] the AUC (Adrenal Gland) was 29515 Ng eq hr/g, the “Mean concentration of total radioactivity” value (“Mean concentration” below) (Adrenal Gland, 0.5 Hrs) was 3580 ng equiv./g and the “Tissue:Plasma Ratio” value (Adrenal Gland, 0.5 Hrs) was 4.00. The “Mean concentration” value (Adrenal Gland, 8.5 Hrs) was 941 ng equiv./g, the “Tissue:Plasma Ratio” value (Adrenal Gland, 8.5 Hrs) was 1.87 and the “Mean concentration” value (Adrenal Gland, 24 Hrs) was 68.9 ng equiv./g. For the same molecule, the “Tissue:Plasma Ratio” value (Adrenal Gland, 24 Hrs) was 4.67, the “Mean concentration” value (Adrenal Gland, 72 Hrs) was 19.3 ng equiv./g and the “Tissue:Plasma Ratio” value (Adrenal Gland, 72 Hrs) was 4.47. For the same molecule, the “Mean concentration” value (Adrenal Gland, 168 Hrs) was less than 5.10 ng equiv./g, the “Mean concentration” value (Adrenal Gland, 336 Hrs) was less than 5.10 ng equiv./g and the AUC (Adrenal Gland, first AUC column) was 29153 Ng eq hr/g. The AUC (Blood) was 1261 Ng eq hr/g, the “Tissue:Plasma Ratio” value (Blood, 0.5 Hrs) was 1.43 and the “Tissue:Plasma Ratio” value (Blood, 8.5 Hrs) was 1.24. The “Tissue:Plasma Ratio” value (Blood, 24 Hrs) was 3.01, the “Tissue:Plasma Ratio” value (Blood, 72 Hrs) was 2.74 and the AUC (Blood, first AUC column) was 12063 Ng eq hr/g. The AUC (Bone) was 794704 Ng eq hr/g, the AUC (Bone Marrow) was 47468 Ng eq hr/g and the “Mean concentration” value (Bone Marrow, 0.5 Hrs) was 4376 ng equiv./g. The “Tissue:Plasma Ratio” value (Bone Marrow, 0.5 Hrs) was 4.89, the “Mean concentration” value (Bone Marrow, 8.5 Hrs) was 1562 ng equiv./g and the “Tissue:Plasma Ratio” value (Bone Marrow, 8.5 Hrs) was 3.10. For the same molecule, the “Mean concentration” value (Bone Marrow, 24 Hrs) was 291 ng equiv./g, the “Tissue:Plasma Ratio” value (Bone Marrow, 24 Hrs) was 19.7 and the “Mean concentration” value (Bone Marrow, 72 Hrs) was 22.5 ng equiv./g. For the same molecule, the “Tissue:Plasma Ratio” value (Bone Marrow, 72 Hrs) was 5.21, the “Mean concentration” value (Bone Marrow, 168 Hrs) was less than 5.10 ng equiv./g and the “Mean concentration” value (Bone Marrow, 336 Hrs) was less than 5.10 ng equiv./g. For the same molecule, the AUC (Bone Marrow, first AUC column) was 47116 Ng eq hr/g, the “Mean concentration” value (Bone, 0.5 Hrs) was 3312 ng equiv./g and the “Tissue:Plasma Ratio” value (Bone, 0.5 Hrs) was 3.70. The “Mean concentration” value (Bone, 8.5 Hrs) was 3794 ng equiv./g, the “Tissue:Plasma Ratio” value (Bone, 8.5 Hrs) was 7.53 and the “Mean concentration” value (Bone, 24 Hrs) was 2711 ng equiv./g. The “Tissue:Plasma Ratio” value (Bone, 24 Hrs) was 184, the “Mean concentration” value (Bone, 72 Hrs) was 1787 ng equiv./g and the “Tissue:Plasma Ratio” value (Bone, 72 Hrs) was 414. The “Mean concentration” value (Bone, 168 Hrs) was 1526 ng equiv./g, the “Mean concentration” value (Bone, 336 Hrs) was 720 ng equiv./g and the AUC (Bone, first AUC column) was 569498 Ng eq hr/g. The AUC (Brain) was 2865 Ng eq hr/g, the Cmax (Brain) was 54 Ng equiv/g and the “Mean concentration” value (Brain, 0.5 Hrs) was 35.8 ng equiv./g. For the same molecule, the “Tissue:Plasma Ratio” value (Brain, 0.5 Hrs) was 0.040, the “Mean concentration” value (Brain, 8.5 Hrs) was 54.3 ng equiv./g and the “Tissue:Plasma Ratio” value (Brain, 8.5 Hrs) was 0.108. The “Mean concentration” value (Brain, 24 Hrs) was 35.8 ng equiv./g, the “Tissue:Plasma Ratio” value (Brain, 24 Hrs) was 2.42 and the “Mean concentration” value (Brain, 72 Hrs) was 13.3 ng equiv./g. For the same molecule, the “Tissue:Plasma Ratio” value (Brain, 72 Hrs) was 3.10, the “Mean concentration” value (Brain, 168 Hrs) was less than 5.10 ng equiv./g and the “Mean concentration” value (Brain, 336 Hrs) was less than 5.10 ng equiv./g. For the same molecule, the AUC (Brain, first AUC column) was 2256 Ng eq hr/g, the AUC (Eyes) was 3221 Ng eq hr/g and the Cmax (Eyes) was 108 Ng equiv/g. For the same molecule, the “Mean concentration” value (Eyes, 0.5 Hrs) was 106 ng equiv./g, the “Tissue:Plasma Ratio” value (Eyes, 0.5 Hrs) was 0.118 and the “Mean concentration” value (Eyes, 8.5 Hrs) was 108 ng equiv./g. The “Tissue:Plasma Ratio” value (Eyes, 8.5 Hrs) was 0.215, the “Mean concentration” value (Eyes, 24 Hrs) was 36.6 ng equiv./g and the “Tissue:Plasma Ratio” value (Eyes, 24 Hrs) was 2.46. For the same molecule, the “Mean concentration” value (Eyes, 72 Hrs) was 6.76 ng equiv./g, the “Tissue:Plasma Ratio” value (Eyes, 72 Hrs) was 1.57 and the “Mean concentration” value (Eyes, 168 Hrs) was less than 5.10 ng equiv./g. For the same molecule, the “Mean concentration” value (Eyes, 336 Hrs) was less than 5.10 ng equiv./g, the AUC (Eyes, first AUC column) was 3060 Ng eq hr/g and the AUC (Fat) was 3500 Ng eq hr/g. The “Mean concentration” value (Fat, 0.5 Hrs) was 450 ng equiv./g, the “Tissue:Plasma Ratio” value (Fat, 0.5 Hrs) was 0.50 and the “Mean concentration” value (Fat, 8.5 Hrs) was 144 ng equiv./g. The “Tissue:Plasma Ratio” value (Fat, 8.5 Hrs) was 0.287, the “Mean concentration” value (Fat, 24 Hrs) was less than 5.1 ng equiv./g and the “Mean concentration” value (Fat, 72 Hrs) was less than 5.10 ng equiv./g. For the same molecule, the “Mean concentration” value (Fat, 168 Hrs) was less than 5.10 ng equiv./g, the “Mean concentration” value (Fat, 336 Hrs) was less than 5.10 ng equiv./g and the AUC (Fat, first AUC column) was 2489 Ng eq hr/g. The AUC (Heart) was 40179 Ng eq hr/g, the “Mean concentration” value (Heart, 0.5 Hrs) was 5657 ng equiv./g and the “Tissue:Plasma Ratio” value (Heart, 0.5 Hrs) was 6.32. For the same molecule, the “Mean concentration” value (Heart, 8.5 Hrs) was 1138 ng equiv./g, the “Tissue:Plasma Ratio” value (Heart, 8.5 Hrs) was 2.26 and the “Mean concentration” value (Heart, 24 Hrs) was 69.9 ng equiv./g. For the same molecule, the “Tissue:Plasma Ratio” value (Heart, 24 Hrs) was 4.74, the “Mean concentration” value (Heart, 72 Hrs) was 6.98 ng equiv./g and the “Tissue:Plasma Ratio” value (Heart, 72 Hrs) was 1.62. For the same molecule, the “Mean concentration” value (Heart, 168 Hrs) was less than 5.10 ng equiv./g, the “Mean concentration” value (Heart, 336 Hrs) was less than 5.10 ng equiv./g and the AUC (Heart, first AUC column) was 40083 Ng eq hr/g. The AUC (Kidney) was 70704 Ng eq hr/g, the Cmax (Kidney) was 7601 Ng equiv/g and the “Mean concentration” value (Kidney, 0.5 Hrs) was 7601 ng equiv./g. For the same molecule, the “Tissue:Plasma Ratio” value (Kidney, 0.5 Hrs) was 8.49, the “Mean concentration” value (Kidney, 8.5 Hrs) was 1725 ng equiv./g and the “Tissue:Plasma Ratio” value (Kidney, 8.5 Hrs) was 3.42. The “Mean concentration” value (Kidney, 24 Hrs) was 140 ng equiv./g, the “Tissue:Plasma Ratio” value (Kidney, 24 Hrs) was 9.49 and the “Mean concentration” value (Kidney, 72 Hrs) was 47.9 ng equiv./g. For the same molecule, the “Tissue:Plasma Ratio” value (Kidney, 72 Hrs) was 11.1, the “Mean concentration” value (Kidney, 168 Hrs) was 41.3 ng equiv./g and the “Mean concentration” value (Kidney, 336 Hrs) was 13.9 ng equiv./g. It also gave an AUC (Kidney, first AUC column) of 68333 Ng eq hr/g, an AUC (Liver) of 53527 Ng eq hr/g and a Cmax (Liver) of 7300 Ng equiv/g. For the same molecule, the “Mean concentration” value (Liver, 0.5 Hrs) was 7300 ng equiv./g, the “Tissue:Plasma Ratio” value (Liver, 0.5 Hrs) was 8.16 and the “Mean concentration” value (Liver, 8.5 Hrs) was 1192 ng equiv./g. For the same molecule, the “Tissue:Plasma Ratio” value (Liver, 8.5 Hrs) was 2.37.
